{"source": "patent US7223839B2", "about": "“Histamine receptor H3 polynucleotides” (Merck & Co., Inc., priority 2001, dated 2007)", "key": {"[1]": {"target": "H3b variant (Homo sapiens, UniProt Q9Y5N1, E19D)", "sequence (Q9Y5N1 1-365 isoform Q9Y5N1-3 E19D)": "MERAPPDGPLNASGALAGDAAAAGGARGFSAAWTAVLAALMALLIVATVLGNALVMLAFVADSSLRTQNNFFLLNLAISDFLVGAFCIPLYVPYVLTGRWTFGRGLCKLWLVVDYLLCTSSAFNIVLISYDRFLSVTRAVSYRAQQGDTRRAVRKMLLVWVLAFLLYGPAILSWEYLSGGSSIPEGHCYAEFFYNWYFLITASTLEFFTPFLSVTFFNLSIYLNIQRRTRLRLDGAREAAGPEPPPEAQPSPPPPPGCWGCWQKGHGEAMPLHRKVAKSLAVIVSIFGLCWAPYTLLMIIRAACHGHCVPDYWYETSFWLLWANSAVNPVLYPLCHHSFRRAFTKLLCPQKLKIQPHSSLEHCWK", "settings": "COS-7 cells transfected with H3b; 1 μM BODIPY-L-Histamine or Fluorescein Histamine in PBS, 37° C., 30 min; compared with H3a wild type", "method": "(§1) The full length wild type receptor (H3a) and receptor variants H3g and H3h, as well as the variant H3b (which contains the 240 base, 80 amino acid deletion in intracellular loop 3 (i3) but not the N-terminal 108 base, 36 amino acid deletion), were cloned in pCDNA3.0 eukaryotic expression vector for expression in COS-7 cells. The COS-7 cells grown in culture chambers were transfected with 2 μg of plasmid DNA containing one of the H3 receptor or receptor variants with superfect (Qiagen) transfection reagent.\n(§2) Binding of Histamine to receptor or receptor variant was determined by BODIPY-L-Histamine or Fluorescein Histamine (Molecular Probes). Briefly, the transfected cells were washed with PBS and 1 μM of BODIPY-L-Histamine or Fluorescein Histamine in PBS was added to the cells and incubated at 37° C. for 30 min. Unbound fluorescent labeled histamine was washed in cold PBS and the slides were examined immediately under a fluorescent microscope."}, "[2]": {"target": "H3h receptor variant (Homo sapiens, UniProt Q9Y5N1, DEL7-42)", "sequence (Q9Y5N1 with tags, fused parts or gaps isoform Q9Y5N1-3 DEL7-42)": "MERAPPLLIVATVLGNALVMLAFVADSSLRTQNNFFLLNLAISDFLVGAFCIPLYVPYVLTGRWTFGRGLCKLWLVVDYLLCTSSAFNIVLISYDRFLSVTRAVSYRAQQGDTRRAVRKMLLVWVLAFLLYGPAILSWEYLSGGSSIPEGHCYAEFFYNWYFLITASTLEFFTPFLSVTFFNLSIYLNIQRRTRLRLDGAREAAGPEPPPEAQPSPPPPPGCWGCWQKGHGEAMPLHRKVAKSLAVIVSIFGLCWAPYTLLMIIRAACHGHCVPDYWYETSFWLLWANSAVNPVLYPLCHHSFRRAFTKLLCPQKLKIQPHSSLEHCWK", "settings": "COS-7 cells transfected with H3h; 1 μM BODIPY-L-Histamine or Fluorescein Histamine in PBS, 37° C., 30 min; compared with H3a wild type", "method": "as §1, §2"}, "[3]": {"target": "H3g receptor variant (Homo sapiens, UniProt Q9Y5N1, DEL7-42)", "sequence (Q9Y5N1 with tags, fused parts or gaps DEL7-42)": "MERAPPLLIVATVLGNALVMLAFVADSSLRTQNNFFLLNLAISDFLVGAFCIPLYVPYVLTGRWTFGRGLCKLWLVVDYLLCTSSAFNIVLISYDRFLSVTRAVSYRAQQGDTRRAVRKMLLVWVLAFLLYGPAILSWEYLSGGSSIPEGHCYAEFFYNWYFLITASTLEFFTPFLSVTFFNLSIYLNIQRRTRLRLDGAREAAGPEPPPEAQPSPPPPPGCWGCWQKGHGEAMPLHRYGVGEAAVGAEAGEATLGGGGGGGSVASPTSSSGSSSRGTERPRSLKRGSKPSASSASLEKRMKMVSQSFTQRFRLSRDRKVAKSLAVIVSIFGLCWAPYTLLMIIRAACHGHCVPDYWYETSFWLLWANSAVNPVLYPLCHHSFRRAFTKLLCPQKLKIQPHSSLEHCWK", "settings": "COS-7 cells transfected with H3g; 1 μM BODIPY-L-Histamine or Fluorescein Histamine in PBS, 37° C., 30 min; compared with H3a wild type", "method": "as §1, §2"}}, "data": [{"compound": "NCCc1c[nH]cn1", "note": "[histamine]", "values": [{"measurement": "histamine binding", "setting": "[1]", "value": "comparable to the cell transfected with the H3a wild type receptor"}, {"measurement": "histamine binding", "setting": "[2]", "value": "comparable to the cell transfected with the H3a wild type receptor"}, {"measurement": "histamine binding", "setting": "[3]", "value": "comparable to the cell transfected with the H3a wild type receptor"}]}]}
